# Data as given in patent US20090042883A1, “ANTITUMOR AGENT” (KYOWA HAKKOKOGYO CO., priority 2005, published 2009).
# Assays:
# Format in all cases: cell-based
# [1] = tested on: human lung cancer NCI-H596 cells; test: Growth inhibition test on human lung cancer NCI-H596 cells (WST-1, % viability); details: test compound 10 μmol/L, cells without test compound = 100%
# Protocol: (§1) Four thousand cells of human lung cancer NCI-H596 were inoculated into each well of a 96-well microplate (manufactured by Nunc Corp.), and using RPMI1640 medium (culture medium) containing 10% FCS, preculturing was performed in a 5% carbon dioxide incubator at 37° C. for 24 hours. A DMSO solution of each test compound prepared in a concentration of 10 mmol/L was diluted with the culture medium to a final concentration of 10 μmol/L, and the diluted solution was added to each well. The individual wells were further cultured in the 5% carbon dioxide incubator at 37° C. for 72 hours. After completion of the culturing, 10 μL of WST-1 labeled mixture (manufactured by Roche Diagnostic Corp.) was added to each well, and culturing was performed in the 5% carbon dioxide incubator at 37° C. for 2 hours. Using a microplate spectrophotometer (Model 550; manufactured by Bio-Rad), the absorbance of each well was measured at 450 nm and 655 nm. The value obtained by subtracting the absorbance at 450 nm from the absorbance at 655 nm (absorbance difference) was calculated for each well. The value for cells not incorporated with a test compound was designated as 100%, and the value at a well not containing cells was designated as 0%. By comparing these values with the absorbance difference obtained at the well in which each test compound was added, the cell viability (% viability) after treatment with the test compound was calculated.
# [2] = tested on: human T-cell lymphoma Karpas-299 cells; test: Growth inhibition test on human T-cell lymphoma Karpas-299 cells (WST-1, % viability); details: test compound 10 μmol/L, 72 hours, cells without test compound = 100%
# Protocol: as §1, with “Five” for “Four”, “T-cell lymphoma Karpas-299” for “lung cancer NCI-H596”, “RPMI” for “RPMI1640”, “5” for “24”, “(SpectraMax 340PC384;” for “(Model 550;”, “Nihon Molecular Devices),” for “Bio-Rad),”
# [3] = tested on: human mammary cancer BT-474 cells; test: Growth inhibition test on human mammary cancer BT-474 cells (WST-1, % viability); details: test compound 10 μmol/L, cells without test compound = 100%
# Protocol: as §1, with “mammary” for “lung”, “BT-474” for “NCI-H596”, “Dulbecco's Modified Eagle's Medium (DMEM)” for “RPMI1640 medium”, “(SpectraMax 340PC384;” for “(Model 550;”, “Nihon Molecular Devices),” for “Bio-Rad),”
# [4] = tested on: human chronic lymphocytic leukemia-derived MEC-1 cells; test: Growth inhibition test on human chronic lymphocytic leukemia-derived MEC-1 cells (WST-1, % viability); details: test compound 10 μmol/L, 72 hours, cells without test compound = 100%
# Protocol: as §1, with “Ten thousand” for “Four thousand”, “human chronic lymphocytic leukemia-derived MEC-1” for “human lung cancer NCI-H596”, “for 1 hour.” for “for 24 hours.”, “for 3” for “for 2”, “spectrophotometer (M-SPmax 250;” for “spectrophotometer (Model 550;”, “by Molecular Devices Corp.),” for “by Bio-Rad),”
Structure (SMILES),"Viability of tumor cells (% viability), Human lung cancer NCI-H596 cells [1]","Viability of tumor cells (% viability), Human T-cell lymphoma Karpas-299 cells [2]","Viability of tumor cells (% viability), Human mammary cancer BT-474 cells [3]","Viability of tumor cells (% viability), Human chronic lymphocytic leukemia MEC-1 cells [4]"
CCc1c(O)cc(O)c(C(=O)c2ccc(OC(C)C)cc2)c1CC(=O)N(CCOC)CCN1CCOCC1 [Compound 134],17%,16%,13%,6%
CCc1c(O)cc(O)c(C(=O)c2ccc(OCCN3CCOCC3)c(OC)c2)c1CC(=O)N(CCOC)CCOC.Cl [Compound 139],16%,14%,14%,5%
CCc1c(O)cc(O)c(C(=O)c2ccc(OC)c(OC)c2)c1CC(=O)N(CCO)CCOC [Compound 56],20%,14%,13%,4%
CCc1c(O)cc(O)c(C(=O)c2ccc(OC)cc2)c1CC(=O)N1CCN(c2ccccc2C#N)CC1 [Compound 17],16%,16%,10%,4%
CCc1c(O)cc(O)c(C(=O)c2ccc(OC)cc2)c1CC(=O)N1CCc2cc(OC)c(OC)cc2C1 [Compound 38],15%,14%,13%,4%
CCc1c(O)cc(O)c(C(=O)c2ccc(S(C)(=O)=O)cc2)c1CC(=O)N(CCOC)CCOC [Compound 107],16%,14%,13%,5%
CCc1c(O)cc(O)c(C(=O)c2ccc(OC)cc2)c1CC(=O)N(C)Cc1cccnc1 [Compound 16],19%,13%,12%,3%
CCc1c(O)cc(O)c(C(=O)c2ccc(OC(F)(F)F)cc2)c1CC(=O)N(CCO)CCOC [Compound 88],14%,16%,13%,5%
CCc1c(O)cc(O)c(C(=O)c2ccc(OC(C)C)cc2)c1CC(=O)N(CCO)CCOC [Compound 124],15%,14%,13%,4%
CCc1c(O)cc(O)c(C(=O)c2ccc(SC)cc2)c1CC(=O)N(CCO)CCOC [Compound 95],14%,15%,13%,4%
CCc1c(O)cc(O)c(C(=O)c2ccc(OCCN3CCOCC3)c(OC)c2)c1CC(=O)N(CCOC)CCOC [Compound 125],17%,15%,14%,5%
CCc1c(O)cc(O)c(C(=O)c2ccc(OC)cc2)c1CC(=O)N1CCN(c2ncccn2)CC1 [Compound 32],15%,15%,13%,4%
CCc1c(O)cc(O)c(C(=O)c2ccc(OC)c(OC)c2)c1CC(=O)N1CCN(c2ccccc2)CC1 [Compound 41],12%,19%,14%,4%
CCc1c(O)cc(O)c(C(=O)c2ccsc2)c1CC(=O)N(CCO)CCOC [Compound 151],28%,13%,13%,4%
CCc1c(O)cc(O)c(C(=O)c2ccc(OC)cc2)c1CC(=O)N1CCC(CO)CC1 [Compound 61],25%,13%,12%,5%
CCc1c(O)cc(O)c(C(=O)c2ccc(OCCCN3CCOCC3)c(OC)c2)c1CC(=O)N(CCOC)CCOC [Compound 149],14%,14%,14%,5%
